Data published in patent EP0606463B1, “NEUROMEDIN B RECEPTOR ANTAGONISTS” (The Administrators of The Tulane Educational Fund, priority 1992, dated 1994).
Where a SMILES comes first, the peptide text is derived from it. Bridges are numbered along the chain shown (N, C = ends). [ ]: non-standard residue; d: D form. 2Nal = N[C@@H](Cc1ccc2ccccc2c1)C(=O)O; d2Nal = N[C@H](Cc1ccc2ccccc2c1)C(=O)O; Lys(iPr) = CC(C)NCCCC[C@H](N)C(=O)O

Key:
[1] = molecular target: T1, rat NMB receptor (Rattus norvegicus, UniProt P24053); assay: Binding of 125I-[D-Tyr0]NMB to NMB-R transfected BALB 3T3 cells; conditions: for fold by which cyclo SS-octa was more potent than the analog: inhibition of ^125I-[Tyr^0]NMB binding to NMB-R transfected cells; for decrease in NMB receptor affinity compared with #1: structure-function comparison of Table 1 values
T1 construct: a full length NMB-preferring bombesin receptor clone generated from rat esophagus; expressed in transfected cells; host or cells: BALB 3T3 cells
T1 sequence (P24053 1-390): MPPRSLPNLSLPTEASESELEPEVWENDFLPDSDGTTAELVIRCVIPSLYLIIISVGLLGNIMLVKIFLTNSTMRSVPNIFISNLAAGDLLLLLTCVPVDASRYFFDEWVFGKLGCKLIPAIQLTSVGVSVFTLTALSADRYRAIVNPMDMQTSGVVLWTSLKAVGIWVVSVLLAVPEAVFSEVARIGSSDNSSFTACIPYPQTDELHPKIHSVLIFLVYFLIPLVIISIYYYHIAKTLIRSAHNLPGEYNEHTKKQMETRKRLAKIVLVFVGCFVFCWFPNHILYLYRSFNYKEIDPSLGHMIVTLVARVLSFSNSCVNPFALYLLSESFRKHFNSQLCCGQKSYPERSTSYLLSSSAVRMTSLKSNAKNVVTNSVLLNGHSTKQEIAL
Experimental: (§1) Cells were passaged every 3-4 days at confluence, using 0.1% trypsin in 1 mM EDTA. Rat glioblastoma C-6 tumor cells were maintained similarly and were passaged weekly at confluence. Both cell lines were cultured at 37°C in a 5% CO2 atmosphere. Rat AR 42J pancreatic acinar cells were cultured in Dulbecco's modified Eagle's medium (DMEM) without antibiotics and supplemented with 10% (vol/vol) fetal calf serum. The incubation atmosphere consisted of 10% CO2-90% humidified air at 37°C.

[2] = molecular target: T2, NMB Receptor (Rattus norvegicus, UniProt P24053); assay: [3H]inositol phosphates (IP) in NMB-R transfected cells; format: cell-based; conditions: for NMB-R Transfected Cells [^3H]IP Alone (10 µ M): analog 10 µM alone, no-additive control 13 ± 3; for NMB-R Transfected Cells [^3H]IP Plus NMB (3 nM): analog 10 µM plus NMB 3 nM, NMB without analog 186 ± 58; for effect on NMB-stimulated increase in [^3H]IP: NMB-R transfected cells, 3 nM NMB, peptide 10 µM
T2 construct: a full length NMB-preferring bombesin receptor clone generated from rat esophagus; expressed in transfected cells; host or cells: BALB 3T3 cells
T2 sequence (P24053 1-390): T1 sequence (P24053 1-390)
Experimental: as §1, with “As described previously [Wada, E., et al. Neuron 6:421 (1991)], BALB 3T3 cells expressing a stably transfected rat NMB receptor (NMB-R transfected cells) were obtained using calcium phosphate precipitation of a full length NMB-preferring bombesin receptor clone generated from rat esophagus and subcloned into a modified version of the pCD2 plasmid. Cells” for “Cells”
Total phosphoinositides in C-6 cells and in NMB-R transfected cells were determined as described previously, with minor modifications [Benya, R. V. et al. Mol. Pharmacol. 42:1058 (1992); and Wang, L-H. et al. Biochem. J. 286:641 (1992)]. Cells were grown to confluence in 24-well plates and then loaded with 100 µCi/ml myo-[2-^3H]inositol in Dulbecco's modified essential medium with 2% fetal bovine serum at 37°C for 48 hrs. Cells were washed and incubated in phosphoinositide buffer (standard buffer additionally containing 10 mM LiCl, 20 mM HEPES, 2 mM CaCl2, 2% BSA, and 1.2 mM MgSO4) for 15 min and then for 60 min at 37°C with agonists at various concentrations or with 3 nM NMB (a half-maximal effective concentration) and possible antagonists at different concentrations. Reactions were halted using ice-cold 1% HCl in methanol, and the inositol phosphates (IP) were isolated as described previously [Bologna, M. et al. Cancer 63:1714 (1989); and Endo, T. et al. J. Endocrinol. 131:313 (1991)]. Briefly, after loading of the anion exchange column, free [^3H]glycerophosphorylinositol was removed by washing with 5 mM disodium tetraborate in 60 mM sodium formate. Total [^3H]inositol phosphates were then eluted using 100 mM formic acid in 1.0 M ammonium formate as described previously [Benya, R. V. et al. Mol. Pharmacol. 42:1058 (1992); and Wang, L-H. et al. Biochem. J. 286:641 (1992)].

[3] = molecular target: T3, GRP Receptor (Rattus norvegicus, UniProt P52500); assay: Amylase release from rat pancreatic acini; format: cell-based; conditions: for Rat Pancreatic Acini Amylase Release Alone (10µM): analog 10 µM alone, no-additive control 4 ± 1; for Rat Pancreatic Acini Amylase Release Plus Bn(0.3 nM): analog 10 µM plus Bn 0.3 nM, Bn without analog 15 ± 1
T3 construct: from tissue; host or cells: dispersed pancreatic acini
T3 sequence (P52500 whole entry): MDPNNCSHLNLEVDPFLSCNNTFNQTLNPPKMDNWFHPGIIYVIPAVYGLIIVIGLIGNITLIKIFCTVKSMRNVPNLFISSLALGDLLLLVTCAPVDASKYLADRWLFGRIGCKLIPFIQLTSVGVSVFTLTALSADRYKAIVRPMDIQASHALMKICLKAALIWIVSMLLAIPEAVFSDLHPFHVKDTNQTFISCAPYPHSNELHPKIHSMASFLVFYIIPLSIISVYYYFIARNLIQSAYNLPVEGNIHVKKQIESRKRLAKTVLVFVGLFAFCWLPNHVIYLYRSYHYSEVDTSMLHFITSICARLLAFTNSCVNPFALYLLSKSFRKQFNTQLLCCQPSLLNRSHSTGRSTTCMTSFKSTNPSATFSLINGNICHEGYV

Compound | fold by which cyclo SS-octa was more potent than the analog [1] | NMB-R Transfected Cells [^3H]IP Alone (10 µ M) [2] | NMB-R Transfected Cells [^3H]IP Plus NMB (3 nM) [2] | Rat Pancreatic Acini Amylase Release Alone (10µM) [3] | Rat Pancreatic Acini Amylase Release Plus Bn(0.3 nM) [3] | effect on NMB-stimulated increase in [^3H]IP [2] | decrease in NMB receptor affinity compared with #1 [1] | fold greater affinity for the NMB than the GRP receptors ([1]; NMB-R transfected cells versus GRP receptors on rat pancreatic acini)
CC(C)[C@@H]1NC(=O)[C@H](CCCCN)NC(=O)[C@@H](Cc2c[nH]c3ccccc23)NC(=O)[C@H](Cc2ccc(O)cc2)NC(=O)[C@@H](NC(=O)[C@H](N)Cc2ccccc2)CSSC[C@@H](C(=O)N[C@@H](Cc2ccc3ccccc3c2)C(N)=O)NC1=O [Analog #4, [D-Phe^1]-cyclo SS-octa] (H-[dF]CY[dW]KVC[2Nal]-NH2; disulfide 2-7; N-terminus assumed) | 4 fold | 13 ± 1 dpm x 10^3 | 33 ± 4 dpm x 10^3 | 4 ± 2 % total | 14 ± 1 % total | – | – | –
C[C@@H](O)[C@H](NC(=O)[C@@H]1CSSC[C@H](NC(=O)[C@H](N)Cc2ccc3ccccc3c2)C(=O)N[C@@H](Cc2ccc(O)cc2)C(=O)N[C@H](Cc2c[nH]c3ccccc23)C(=O)N[C@@H](CCCCN)C(=O)N[C@@H]([C@@H](C)O)C(=O)N1)C(N)=O [Analog #6, [Thr^6,8]-cyclo-SS-octa] | 69 fold | 11 ± 2 dpm x 10^3 | 188 ± 30 dpm x 10^3 | 3 ± 1 % total | 14 ± 2 % total | had no effect | – | –
C[C@@H](O)[C@@H]1NC(=O)[C@H](CCCCN)NC(=O)[C@@H](Cc2c[nH]c3ccccc23)NC(=O)[C@H](Cc2ccc(O)cc2)NC(=O)[C@@H](NC(=O)[C@H](N)Cc2ccccc2)CSSC[C@@H](C(=O)N[C@@H](Cc2ccc3ccccc3c2)C(N)=O)NC1=O [Analog #7, [D-Phe^1, Thr^6]-cyclo-SS-octa] (H-[dF]CY[dW]KTC[2Nal]-NH2; disulfide 2-7; N-terminus assumed) | 18 fold | 15 ± 1 dpm x 10^3 | 99 ± 24 dpm x 10^3 | 3 ± 1 % total | 16 ± 1 % total | – | – | –
CC(C)[C@@H]1NC(=O)[C@H](CCCCN)NC(=O)[C@@H](Cc2c[nH]c3ccccc23)NC(=O)[C@H](Cc2ccc(O)cc2)NC(=O)[C@@H](NC(=O)[C@H](N)Cc2ccc3ccccc3c2)CSSC[C@@H](C(=O)N[C@H](Cc2ccc3ccccc3c2)C(N)=O)NC1=O [Analog #8, [D-Nal^8]-cyclo SS-octa] (H-[d2Nal]CY[dW]KVC[d2Nal]-NH2; disulfide 2-7; N-terminus assumed) | 9 fold | 10 ± 3 dpm x 10^3 | 67 ± 13 dpm x 10^3 | 2 ± 1 % total | 14 ± 1 % total | – | 6 fold | –
CC(C)[C@@H]1NC(=O)[C@H](CCCCN)NC(=O)[C@@H](Cc2c[nH]c3ccccc23)NC(=O)[C@H](Cc2ccc(O)cc2)NC(=O)[C@@H](NC(=O)[C@@H](N)Cc2ccc3ccccc3c2)CSSC[C@@H](C(=O)N[C@H](Cc2ccc3ccccc3c2)C(N)=O)NC1=O [Analog #9, [Nal^1,D-Nal^8]-cyclo SS-octa] (H-[2Nal]CY[dW]KVC[d2Nal]-NH2; disulfide 2-7; N-terminus assumed) | 6 fold | 8 ± 2 dpm x 10^3 | 28 ± 6 dpm x 10^3 | 3 ± 1 % total | 16 ± 1 % total | – | – | –
CC(C)[C@@H]1NC(=O)[C@H](CCCCN)NC(=O)[C@@H](Cc2c[nH]c3ccccc23)NC(=O)[C@H](Cc2ccc(O)cc2)NC(=O)[C@H](NC(=O)[C@H](N)Cc2ccc3ccccc3c2)CSSC[C@@H](C(=O)N[C@@H](Cc2ccc3ccccc3c2)C(N)=O)NC1=O [Analog #10, [D-Cys^2]-cyclo SS-octa] (H-[d2Nal][dC]Y[dW]KVC[2Nal]-NH2; disulfide 2-7; N-terminus assumed) | 6 fold | 10 ± 3 dpm x 10^3 | 4 ± 2 dpm x 10^3 | 3 ± 1 % total | 16 ± 1 % total | completely inhibited | 5 fold | –
CC(C)[C@@H]1NC(=O)[C@H](CCCCN)NC(=O)[C@@H](Cc2c[nH]c3ccccc23)NC(=O)[C@H](Cc2ccc(O)cc2)NC(=O)[C@@H](NC(=O)[C@H](N)Cc2c[nH]c3ccccc23)CSSC[C@@H](C(=O)N[C@@H](Cc2ccc3ccccc3c2)C(N)=O)NC1=O [Analog #12, [D-Trp^1]-cyclo SS-octa] (H-[dW]CY[dW]KVC[2Nal]-NH2; disulfide 2-7; N-terminus assumed) | 9 fold | 9 ± 2 dpm x 10^3 | 43 ± 2 dpm x 10^3 | 3 ± 1 % total | 13 ± 1 % total | – | – | –
NCCCC[C@@H]1NC(=O)[C@@H](Cc2c[nH]c3ccccc23)NC(=O)[C@H](Cc2ccc(O)cc2)NC(=O)[C@@H](NC(=O)[C@H](N)Cc2ccc3ccccc3c2)CSSC[C@@H](C(=O)N[C@@H](Cc2ccc3ccccc3c2)C(N)=O)NC(=O)[C@H](Cc2ccccc2)NC1=O [Analog #13, [Phe^6]-cyclo SS-octa] (H-[d2Nal]CY[dW]KFC[2Nal]-NH2; disulfide 2-7; N-terminus assumed) | 2 fold | 10 ± 1 dpm x 10^3 | 9 ± 4 dpm x 10^3 | 3 ± 1 % total | 14 ± 1 % total | completely inhibited | – | > 100 fold
CC(C)NCCCC[C@@H]1NC(=O)[C@@H](Cc2c[nH]c3ccccc23)NC(=O)[C@H](Cc2ccc(O)cc2)NC(=O)[C@@H](NC(=O)[C@H](N)Cc2ccccc2)CSSC[C@@H](C(=O)N[C@@H](Cc2ccc3ccccc3c2)C(N)=O)NC(=O)[C@H]([C@@H](C)O)NC1=O [Analog #15, [D-Phe^1, Lys(iPr)^5, Thr^6]-cyclo SS-octa] (H-[dF]CY[dW][Lys(iPr)]TC[2Nal]-NH2; disulfide 2-7; N-terminus assumed) | 9 fold | 11 ± 1 dpm x 10^3 | 67 ± 7 dpm x 10^3 | 4 ± 2 % total | 13 ± 2 % total | – | – | –
C[C@@H](O)[C@H](NC(=O)[C@@H]1CSSC[C@H](NC(=O)[C@H](N)Cc2ccc3ccccc3c2)C(=O)N[C@@H](Cc2ccccc2)C(=O)N[C@H](Cc2c[nH]c3ccccc23)C(=O)N[C@@H](CCCCN)C(=O)N[C@@H]([C@@H](C)O)C(=O)N1)C(N)=O [Analog #18, [Phe^3, Thr^6,8]-cycle SS-octa] (H-[d2Nal]CF[dW]KTCT-NH2; disulfide 2-7) | – | 11 ± 1 dpm x 10^3 | 143 ± 11 dpm x 10^3 | – | – | had no effect | – | –
